Measured values published in patent US20230372335A1, “TREATMENT OF COGNITIVE IMPAIRMENT WITH A CNS-PENETRANT sGC STIMULATOR” (Cyclerion Therapeutics, Inc., priority 2020, published 2023).
Entries after “also recorded” stand apart in the source; their conditions may differ.

Columns and labels:
[1] = test system: healthy elderly participants; assay: Resting-state EEG power spectra, healthy elderly study NCT04240158; format: in vivo, human
Procedure: Resting-state EEG recordings with open and closed eyes for 5 min in each eye state were performed. Each recording employed alternating periods with eyes open and closed with a duration of 64-seconds for each period. Participants faced a featureless wall and were instructed not to stare, not to move their head and eyes, and to suppress eye blinks.
An EEG cap with electrodes at the Fz, Cz, Pz, and Oz positions (referring to frontal, central, parietal, and occipital regions at the midline, respectively) was used to record signals. Analyses of EEG-power spectra signals were carried out at the following frequency bands: • Delta-1-4 Hz (typically associated with sleep), Theta-4-7.5 Hz (associated with waking/falling asleep, some association with cognition), Alpha-8-12 Hz (associated with passive wakefulness, and with cognitive processing), Beta-12-25 Hz (associated with alertness and concentration) and Gamma-25-45 Hz (associated with higher cognitive function).
(§1) This single-center double-blind, randomized, placebo-controlled, two-way, cross-over study evaluated a single dose level of IW-6463 compared to placebo. Subjects (male and female) were enrolled into 2 pre-defined, staggered cohorts (Cohort 1 and Cohort 2). The dose selected for both cohorts was the same but the start of enrollment within each cohort was different. This was based upon the availability of preliminary data from the previously started Phase 1 study NCT03856827 in healthy subjects and the emerging safety profile for that study from which a potential different second dose was being considered, but finally was not selected.
(§2) One dosage regimen was studied in this clinical trial. For subjects receiving IW-6463 during the given dosing period, IW-6463 tablets were administered orally at a 15-mg total once-daily dose for. For subjects receiving placebo during the given dosing period, placebo tablets to match IW-6463 tablets were used. For Cohort 1, the 15 mg total oral daily dose was selected based on emerging data from the Phase 1 study NCT03856827, pre-clinical qEEG results, as well as multispecies PK parameters. For Cohort 2, in addition to the those data. the emerging data from Cohort 1 of this study supported selection of the 15 mg total oral daily dose.

rodents = settings: pre-clinical models; cited from earlier work
[2] = test system: healthy subjects aged 18 to 62; assay: EEG in Phase I clinical trial NCT03856827; format: in vivo, human
Source text: Nonclinical pharmacology and toxicology data supported conducting clinical studies of Compound Ito assess its safety, tolerability, pharmacokinetic (PK), and pharmacodynamics (PD) in humans. In a Phase I clinical trial (NCT03856827) changes were also observed in the brains of healthy subjects aged 18 to 62 by EEG.

pre-clinical models = settings: cited from earlier work
[3] = test system: healthy elderly participants; assay: N200 (MMN) auditory event-related potential by EEG, NCT04240158; format: in vivo, human; settings: for ERP N200 amplitude: vs placebo or pre-treatment (FIG. 3); for N200 latency response vs age: subjects older than 70 vs 65-69 years old (FIG. 4, FIG. 8)
Procedure: In P300 and N200 ERP studies, participants were seated wearing the EEG cap and headphones and were instructed to sit still and relax. During the task, participants were presented with auditory tones. Participants were instructed to pay attention to the tones and press a response-button when they heard an infrequent/deviant tone. A total of 500 tones were presented over […], of which 400 were presented as frequent stimuli and 100 as deviant/infrequent stimuli. […] The first 5 trials were frequent tones and there were at least 2 frequent tones between 2 deviant/infrequent tones. The frequent and infrequent tones were 150 ms tones of 500 Hz and 1000 Hz at a sound pressure level of 75 dB, respectively. All tones has a 5 ms rise and fall time. Tones were presented at a fixed rate of 1 Hz.
as §1, §2

[4] = test system: healthy elderly participants; assay: Saccadic eye movements (SEM), NeuroCart, NCT04240158; format: in vivo, human; settings: 15 mg oral once daily
Procedure: In this trial, SEMs were recorded at different times. Recording and analysis of SEMs were conducted with a microcomputer-based system for sampling and analysis of eye movements. The program for signal collection and the AD-converter was from Cambridge Electronic Design (CED Ltd., Cambridge, UK), the amplification by Grass (Grass-Telefactor, An Astro-Med, Inc. Product Group, Braintree, MA, USA) and the sampling and analysis scripts were developed at the CHDR (Leiden, the Netherlands). Disposable silver-silver chloride electrodes (Ambu Blue Sensor N) were applied on the forehead and beside the lateral canthi of both eyes of the participant for registration of the electro-oculographic signals. Skin resistance was reduced to less than 5 kOhm before measurements. […] SEMs were recorded for stimulus amplitudes of approximately 15 degrees to either side. Fifteen saccades were recorded with interstimulus intervals varying randomly between 3 and 6 seconds. […] Saccadic inaccuracy was calculated as the absolute value of the difference between the stimulus angle and the corresponding saccade, expressed as a percentage of the stimulus angle. SEMs were recorded in a training session at screening and during each Neurocart session (on day 1 and 15 of each treatment period at 2 hours pre-dose; on day 15 of each treatment period at 2, 3, and 6 hours post-dose). […]

rats = settings: cited from earlier work
[5] = test system: healthy elderly participants; assay: Safety and tolerability (adverse events, blood pressure), NCT04240158; format: in vivo, human
Procedure: Evaluations of systolic and diastolic blood pressure, pulse rate, respiratory rate, and temperature were performed throughout the study. Pulse and blood pressure were taken after the participant had rested quietly for 5 minutes in supine position. Automated oscillometric blood pressures and pulse rate were measured using a Dash 3000, Dash 4000, Dynamap 400, or Dynamap ProCare 400.
as §2
The safety population is defined as all participants who were randomized and received at least 1 dose of study drug.

[6] = CSF concentration of study drug (pharmacokinetics), NCT04240158; format: in vivo, human
Procedure: as §2
The PK analysis population is defined as all participants who were randomized, received at least 1 dose of study drug, and have at least 1 measurable drug concentration of Compound 1 in collected samples.

[7] = Plasma and CSF concentrations in NCT03856827 trial; format: in vivo, human; settings: total oral daily dose of 10 mg
[8] = test system: CSF neuroinflammatory markers; assay: Exploratory CSF biomarker analysis, NCT04240158; format: in vivo, human; settings: after two weeks of treatment
Source text: Biomarkers measured in the CSF included: neurofilament light chain (NF-L) and cGMP. Other biomarkers measured in CSF include A2M, C3, TIMP1, PAI1 MCP1, PARC (CCL18), MMP3 and TNFR2.

[9] = healthy elderly, 15 mg oral once daily
[10] = healthy elderly, 15 mg oral once daily, Day 15
[11] = safety population, 15 mg oral once daily up to 15 days

concentration at 5 h ([6]; human, CSF, 15 mg oral once daily, 5-hrs post last dose): 77 nM
CSF concentration relative to threshold expected for pharmacological activity in the brain ([6]; threshold determined from preclinical models): 2-3 times
mean plasma and CSF concentrations vs threshold for pharmacological activity in the brain [7]: exceed the threshold
SMILES: Fc1ccccc1Cc1nc(-c2nc(C(F)(F)F)n[nH]2)cn2ccnc12 [Compound I]
mean alpha band power relative to placebo ([1]; Day 15 prior to last dose and 2, 3, 6 hours after last dose (FIG. 1)): increased mean alpha band power relative to placebo at all post-baseline timepoints
EEG (anterior) gamma power, change from baseline [1, 9]: 1 dB
EEG (anterior) gamma power, increase from baseline [1, 9]: 45%
EEG (anterior) alpha power, change from baseline [1, 10]: 0.6 dB
EEG (anterior) alpha power, increase from baseline [1, 10]: 17.5%
EEG (anterior) alpha power, treatment effect vs placebo [1, 10]: 13%
EEG (posterior) alpha power, change relative to baseline [1, 10]: 0.5 dB
EEG (posterior) alpha power, increase from baseline [1, 10]: 13.7%
EEG (posterior) alpha power, treatment effect vs placebo [1, 10]: 17%
activation of brain regions by fMRI-BOLD (rodents): activation of subcortical brain structures relevant to cognition
cerebral blood flow (CBF) (rodents): increased cerebral blood flow
alpha power compared to placebo ([2]; NCT03856827, day 14, across all dosage levels tested): Improvements in alpha power
ERP P300 amplitude ([2]; healthy subjects aged 18 to 62, NCT03856827): increase in amplitude with increasing dose level
effects on memory and learning (pre-clinical models): displaying effects on memory and learning
effects on neuroinflammation (pre-clinical models): positive effects on neuroinflammation
neuroprotective properties (pre-clinical models): displayed neuroprotective properties
magnitude of improvement as age related change in N200 latency ([3]; at older ages, after two weeks of treatment): 10 year
ERP N200 latency ([3]; healthy elderly, 15 mg oral once daily, day 14, compared with placebo, p=0.02): significantly shorter
ERP N200 amplitude [3, 9]: larger N200 negative amplitudes were observed with increasing age
ERP N200 amplitude ([3]; healthy elderly, 15 mg oral once daily, listed as IW-6463): increased the amplitude
N200 latency response vs age [3]: smaller latency increases with increasing age; also recorded: greater in subjects older than 70 years old
N200 latency response vs age ([3]; listed as IW-6463): greater in subjects older than 70 years old
LS mean difference in change from baseline for saccadic peak velocity vs placebo (95% CI) ([4]; day 15): 28.53 (−2.76, 59.83)
LS mean difference in change from baseline for saccadic latency (reaction time) vs placebo ([4]; day 15, p=0.0216): -6.58 ms
qEEG gamma power in combination with donepezil (rats; 10 mg/kg oral plus 1 mg/kg donepezil, 1-2 hours post-dose): further increased
qEEG gamma oscillations / gamma power compared to vehicle dosing (rats; oral suspension): increased gamma oscillations
qEEG gamma power (rats; orally at 10 mg/kg): increased gamma power
headache (most commonly reported CNS event) rate ([5]; IW-6463 vs placebo): rates were similar between treatments
AE reports of syncope, hypotension or other hemodynamic events [5, 11]: no AE reports of syncope, hypotension or other events potentially related to changes in hemodynamics
blood pressure measurements below the normal range [5, 11]: no blood pressure measurements reported below the normal range
CSF concentration of Alpha 2 macroglobulin (A2M) vs placebo ([8]; nominal p 0.013 (FIG. 9)): potentially important reductions in the concentrations
CSF concentration of complement C3 (C3) vs placebo ([8]; nominal p 0.039 (FIG. 9)): potentially important reductions in the concentrations
